Reference: US7781474B2, “Inhibitors of hepatitis C virus replication” (InterMune, Inc., priority 2006, dated 2010)
Where a name gives a salt, the structure may show the parent alone.

molecular target: T1, NS3/NS4A-2 (Hepatitis C virus genotype 1a, UniProt P27958); experiment: NS3 inhibition assay (NS3-NS4 protease assay); format: biochemical, hepatitis C virus (HCV); conditions: recombinant full-length NS3 (E. coli or Baculovirus) complexed with NS4A-2; RETS1 substrate
T1 construct: Recombinant E. coli or Baculovirus full-length NS3 was diluted to 3.33 μM with assay buffer; made in house; host or cells: E. coli or Baculovirus (insect cells)
T1 sequence (P27958 1027-1657): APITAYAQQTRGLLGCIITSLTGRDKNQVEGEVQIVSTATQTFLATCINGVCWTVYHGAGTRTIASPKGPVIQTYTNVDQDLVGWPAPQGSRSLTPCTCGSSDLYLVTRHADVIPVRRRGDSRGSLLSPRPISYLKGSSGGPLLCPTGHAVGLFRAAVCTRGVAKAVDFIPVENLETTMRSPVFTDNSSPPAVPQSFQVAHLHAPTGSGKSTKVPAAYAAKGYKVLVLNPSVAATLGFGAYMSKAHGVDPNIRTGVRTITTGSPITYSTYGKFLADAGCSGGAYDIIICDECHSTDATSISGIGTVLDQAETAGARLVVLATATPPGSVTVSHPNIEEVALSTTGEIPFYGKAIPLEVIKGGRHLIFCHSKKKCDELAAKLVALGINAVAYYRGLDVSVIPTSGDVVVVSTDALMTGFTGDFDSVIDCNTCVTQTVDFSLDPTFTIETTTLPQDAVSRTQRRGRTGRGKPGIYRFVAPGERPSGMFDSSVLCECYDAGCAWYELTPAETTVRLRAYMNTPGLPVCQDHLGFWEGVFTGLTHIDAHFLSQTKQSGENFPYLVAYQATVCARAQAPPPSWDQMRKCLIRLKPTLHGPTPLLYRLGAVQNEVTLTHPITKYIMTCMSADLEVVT
Method: NS3 Complex Formation with NS4A-2.
Recombinant E. coli or Baculovirus full-length NS3 was diluted to 3.33 μM with assay buffer and transferred material to an eppendorf tube and place in water bath in 4° C. refrigerator. The appropriate amount of NS4A-2 to 8.3 mM in assay buffer was added to equal the volume of NS3 in step 2.1.1 (conversion factor—3.8 mg/272 μL assay buffer). The material was transferred to an eppendorf tube and place in water bath in 4° C. refrigerator.
After equilibration to 4° C., equal volumes of NS3 and NS4A-2 solutions were combined in an eppendorf tube, mix gently with a manual pipettor, and incubate mixture for 15 minutes in the 4° C. water bath. Final concentrations in the mixture are 1.67 μM NS3, 4.15 mM NS4A-2 (2485-fold molar excess NS4A-2).
After 15 minutes at 4° C., the NS3/NS4A-2 eppendorf tube was removed and place it in a room temperature water bath for 10 minutes. NS3/NS4A-2 was alliquoted at appropriate volumes and store at −80° C. (E. coli NS3 run at 2 nM in assay, aliquot at 25 μL. BV NS3 run at 3 nM in assay, aliquot at 30 μL).
Sample compounds were dissolved to 10 mM in DMSO then diluted to 2.5 mM (1:4) in DMSO. Typically, compounds were added to an assay plate at 2.5 mM concentration, yielding upon dilution a starting concentration of 50 microM in the assay inhibition curve. Compounds were serial diluted in assay buffer to provide test solutions at lower concentrations.
The E. coli. NS3/NS4A-2 was diluted to 4 nM NS3 (1:417.5 of 1.67 μM stock−18 μL 1.67 μM stock+7497 μL assay buffer). The BV NS3/NS4A-2 was diluted to 6 nM NS3 (1:278.3 of 1.67 μM stock−24 μL 1.67 μM stock+6655 μL assay buffer). Using the manual multichannel pipettor, careful not to introduce bubbles into the plate, add 50 μL assay buffer to wells A01-H01 of a black Costar 96-well polypropylene storage plate.
Using the manual multichannel pipettor, careful not to introduce bubbles into the plate, add 50 μL of diluted NS3/NS4A-2 from step 2.2.6 to wells A02-H12 of plate in step 2.2.7. Using the manual multichannel pipettor, careful not to introduce bubbles into the plate, transfer 25 μL of the wells in drug dilution plate in step 2.2.5 to corresponding wells in assay plate in step 2.2.8. Change tips on multichannel pipettor for each row of compounds transferred. Using the manual multichannel pipettor, careful not to introduce bubbles into the plate, mix the wells from the assay plate in step 2.2.9 by aspirating and dispensing 35 μL of the 75 μL in each well five times. Change tips on multichannel pipettor for each row of wells mixed. Cover plate with a polystyrene plate lid and pre-incubate the plate from step 2.2.10 containing NS3 protease and sample compounds 10 minutes at room temperature. While plate from step 2.2.11 is pre-incubating, dilute RETS1 substrate in a 15 mL polypropylene centrifuge tube. Dilute RETS1 substrate to 8 μM (1:80.75 of 646 μM stock−65 μL 646 μM stock+5184 μL assay buffer).
After the plate in step is done pre-incubating, and using the manual multichannel, add 25 μL of substrate to all wells on the plate. Quickly mix the plate as in step 2.2.10, mixing 65 μL of the 100 μL in the wells.
Read the plate in kinetic mode on the Molecular Devices SpectraMax Gemini XS plate reader. Reader settings: Read time: 30 minutes, Interval: 36 seconds, Reads: 51, Excitation λ: 335 nm, Emission λ: 495 nm, cutoff: 475 nm, Automix: off, Calibrate: once, PMT: high, Reads/well: 6, Vmax pts: 21 or 28/51 depending on length of linearity of reaction
IC50s are determined using a four parameter curve fit equation, and converted to Ki's using the following Km's: Full-length E. coli NS3−2.03 μM Full-length BV NS3−1.74 μM
where Ki=IC50/(1+[S]/Km))

| SMILES | IC50 |
| --- | --- |
| C=C[C@@H]1C[C@]1(NC(=O)C1CN(C(=O)OC(C)(C)C)Cc2c[nH]nc21)C(=O)NS(=O)(=O)C1CC1 (mixture of isomers) [Compound 104, Tert-butyl 7-((1R,2S)-1-(cyclopropylsulfonylcarbamoyl)-2-vinylcyclopropylcarbamoyl)-6,7-dihydro-2H-pyrazolo[4,3-c]pyridine-5(4H)-carboxylate] | 10 to 50 µM |
| C=C[C@@H]1C[C@]1(NC(=O)[C@@H]1C[C@@H](OC(=O)N2Cc3cccc(F)c3C2)CN1C(C)=O)C(=O)NS(=O)(=O)C1CC1 [Compound 90, (3R,5S)-1-acetyl-5-((1R,2S)-1-(cyclopropylsulfonylcarbamoyl)-2-vinylcyclopropylcarbamoyl)pyrrolidin-3-yl 4-fluoroisoindoline-2 carboxylate] | < 0.1 µM |
| C=C[C@@H]1C[C@]1(NC(=O)[C@@H]1C[C@@H](OC(=O)N2Cc3cccc(F)c3C2)CN1C(=O)CNC(=O)OC(C)(C)C)C(=O)NS(=O)(=O)C1CC1 [Compound 91] | 0.1 to 1 µM |
| O=C(O)CNC(=O)C1CCCc2c[nH]nc21 (stereo not shown) [Compound 101] | 10 to 50 µM |
| O=C(CNC(=O)C1CCCc2c[nH]nc21)NS(=O)(=O)C1CC1 (stereo not shown) [Compound 102] | 1 to 10 µM |
| C=C[C@@H]1C[C@]1(NC(=O)C1CN(C(=O)Cc2ccccc2)Cc2c[nH]nc21)C(=O)NS(=O)(=O)C1CC1 (stereo partly drawn) [Compound 103, N-((1R,2S)-1-(cyclopropylsulfonylcarbamoyl)-2-vinylcyclopropyl)-5-(2-phenylacetyl)-4,5,6,7-tetrahydro-2H-pyrazolo[4,3-c]pyridine-7-carboxamide] | 1 to 10 µM |
| CCC[C@H](NC(=O)C1CN(C(=O)Cc2ccccc2)Cc2c[nH]nc21)C(=O)NS(=O)(=O)C1CC1 (stereo partly shown) [Compound 106] | 10 to 50 µM |
| CCC[C@H](NC(=O)C1CNCc2c[nH]nc21)C(=O)NS(=O)(=O)C1CC1 (stereo partly shown) [Compound 107] | 10 to 50 µM |
| O=C(O)CNC(=O)C1CN(C(=O)Cc2ccccc2)Cc2c[nH]nc21 (stereo not shown) [Compound 108] | 1 to 10 µM |
| O=C(CNC(=O)C1CNCc2c[nH]nc21)NS(=O)(=O)C1CC1 (stereo not shown) [Compound 109] | 10 to 50 µM |
| O=C(O)C1CNCc2c[nH]nc21 (stereo not shown) [Compound 110] | 1 to 10 µM |
| C=C[C@@H]1C[C@]1(NC(=O)C1CNCc2c[nH]nc21)C(=O)NS(=O)(=O)C1CC1 (stereo partly drawn) [Compound 111, N-((1R,2S)-1-(cyclopropylsulfonylcarbamoyl)-2-vinylcyclopropyl)-4,5,6,7-tetrahydro-2H-pyrazolo[4,3-c]pyridine-7-carboxamide hydrochloride] | 10 to 50 µM |
| O=C(NC1(C(=O)NS(=O)(=O)C2CC2)CCC1)C1CNCc2c[nH]nc21 (stereo not shown) [Compound 112] | 1 to 10 µM |
